Results: US20230292758A1, “COMPOSITIONS AND METHODS FOR CONTROLLLING FUNGAL DISEASES IN PLANTS” (priority 2020, published 2023)

Experiments:
[1] = Relative lipopeptide levels in supernatants by LC-MS; type: physicochemical; conditions: Example 4
Procedure: Bacillus subtilis QST713 WB and Bacillus subtilis QST713 BC were prepared as described in the previous examples. […] Combinations of Bacillus subtilis QST713 BC with 3% (w/w) ANS or 5% (w/w) ANS were also prepared. […] To determine relative amounts of lipopeptides in the combinations samples were centrifuged to obtain the supernatant layer relatively free of spores. It was then filtered and separated on an analytical HPLC column and detected with a mass spectrometer (i.e., via LC-MS).
Peaks containing lipopeptides were identified by analysis of mass to charge (m/z) ratios. For example, “Iturin_1043_B” corresponds with an iturin peak in which the predominant m/z ratio detected by the mass spectrometer was 1043 corresponding with the molecular formula of C48H74N12O14. Relative quantification was performed by comparing the peak areas in the samples to those in an extract of a Bacillus subtilis QST713 WB used across different experiments as a reference standard.
For purposes of comparison, an aliquot of the Bacillus subtilis QST713 WB that was present in the ANS combinations was also analyzed for relative lipopeptides levels. The Bacillus subtilis QST713 WB (the “Extracted” sample in FIG. 2) and a supernatant of the Bacillus subtilis QST713 WB removed after centrifugation (the “Supernatant” sample in FIG. 2) were analyzed via LC-MS. […]

[2] = tested on: Botrytis cinerea; test: Botrytis cinerea disease control assay on treated plants inoculated with spore suspension; type: in vivo; conditions: Example 1; bell pepper plants
Procedure: Subsequently, the plants were inoculated with a spore suspension of Botrytis cinerea. Several days later when disease was evident in the untreated control plants the plants were evaluated for percent disease control. The results shown in Table 1 are the average values of four independent measurements. A relatively high disease pressure affecting 100% of plants in the untreated control group was present. Percent disease control was scored with 0% indicating no difference in disease from the untreated control plants and 100% indicating no observable disease in the plants. […]
Bacillus subtilis QST713 WB and BC were prepared as described in the previous examples. […] Subsequently, the plants were inoculated with a spore suspension of Botrytis cinerea and scored for percent disease control when disease was evident in 100% of the untreated control plants. […]
Bacillus subtilis QST713 WB was prepared as described in the previous examples. […] Four replicate measurements of disease control were evaluated for each treatment, and the average values are presented in the plot shown in FIG. 4.
Each of the combinations was also evaluated for antifungal activity using the Botrytis cinerea assay described in the previous examples.

## sodium diisopropyl naphthalene sulfonate [ANS]
[1]; 3% ANS in WB compared with 3% Adjuvant 1
  relative amounts of iturins in the supernatant: about two to three times greater
[1]; increase from 3% to 5% of ANS, WB and BC
  lipopeptides in the supernatants, in words: corresponding increase of lipopeptides
[2]
  antifungal activity / disease control, in words: no observable disease control
